Assay: Thermal characteristics by TG/DTA
Assay type: physicochemical
Settings: nitrogen atmosphere, temperature rise 10° C./min
Text: TG/DTA and DSC were used for the determination of the decomposition initiation temperature, 5% mass reduction temperature, and glass transition temperature of the derivatives shown in Table 3. The glass transition temperature could not be determined in any of the compounds. All compounds were confirmed to have high heat resistance. Comparison of T3 with T3-7 in which vinyl ether was deprotected and a spacer was introduced confirmed that there were almost no changes in the decomposition initiation temperature and 5% mass reduction temperature caused by introduction of the spacer. The lower decomposition initiation temperatures of these compounds as compared with other derivatives are due to their slight acidity resulting from the hydroxyl groups. […] T3-2a decomposed in two stages, that is, first the decomposition of phthalic acid ester bond and second the decomposition of the ester bond of methacryloyl groups.

Point of comparison: `OCCOc1cc(OCCO)c2cc1C1CCCC3c4cc(c(OCCO)cc4OCCO)C4CCCC5c6cc(c(OCCO)cc6OCCO)C(CCCC6c7cc(c(OCCO)cc7OCCO)C(CCCC7c8cc(c(OCCO)cc8OCCO)C(CCCC(c8cc(c(OCCO)cc8OCCO)C(CCCC2c2cc4c(OCCO)cc2OCCO)c2cc7c(OCCO)cc2OCCO)c2cc1c(OCCO)cc2OCCO)c1cc6c(OCCO)cc1OCCO)c1cc5c(OCCO)cc1OCCO)c1cc3c(OCCO)cc1OCCO` [T3-7], “First decomposition temperature: 5% mass decomposition temperature” value 348 °C. Against it:
- C=C(C)C(=O)Oc1cc(OC(=O)C(=C)C)c2cc1C1CCCC3c4cc(c(OC(=O)C(=C)C)cc4OC(=O)C(=C)C)C4CCCC5c6cc(c(OC(=O)C(=C)C)cc6OC(=O)C(=C)C)C(CCCC6c7cc(c(OC(=O)C(=C)C)cc7OC(=O)C(=C)C)C(CCCC7c8cc(c(OC(=O)C(=C)C)cc8OC(=O)C(=C)C)C(CCCC(c8cc(c(OC(=O)C(=C)C)cc8OC(=O)C(=C)C)C(CCCC2c2cc4c(OC(=O)C(=C)C)cc2OC(=O)C(=C)C)c2cc7c(OC(=O)C(=C)C)cc2OC(=O)C(=C)C)c2cc1c(OC(=O)C(=C)C)cc2OC(=O)C(=C)C)c1cc6c(OC(=O)C(=C)C)cc1OC(=O)C(=C)C)c1cc5c(OC(=O)C(=C)C)cc1OC(=O)C(=C)C)c1cc3c(OC(=O)C(=C)C)cc1OC(=O)C(=C)C [T3-1] — higher, 418 °C
- C=COCCOc1cc(OCCOC=C)c2cc1C1CCCC3c4cc(c(OCCOC=C)cc4OCCOC=C)C4CCCC5c6cc(c(OCCOC=C)cc6OCCOC=C)C(CCCC6c7cc(c(OCCOC=C)cc7OCCOC=C)C(CCCC7c8cc(c(OCCOC=C)cc8OCCOC=C)C(CCCC(c8cc(c(OCCOC=C)cc8OCCOC=C)C(CCCC2c2cc4c(OCCOC=C)cc2OCCOC=C)c2cc7c(OCCOC=C)cc2OCCOC=C)c2cc1c(OCCOC=C)cc2OCCOC=C)c1cc6c(OCCOC=C)cc1OCCOC=C)c1cc5c(OCCOC=C)cc1OCCOC=C)c1cc3c(OCCOC=C)cc1OCCOC=C [T3-6] — higher, 365 °C
- Oc1cc(O)c2cc1C1CCCC3c4cc(c(O)cc4O)C4CCCC5c6cc(c(O)cc6O)C(CCCC6c7cc(c(O)cc7O)C(CCCC7c8cc(c(O)cc8O)C(CCCC(c8cc(c(O)cc8O)C(CCCC2c2cc4c(O)cc2O)c2cc7c(O)cc2O)c2cc1c(O)cc2O)c1cc6c(O)cc1O)c1cc5c(O)cc1O)c1cc3c(O)cc1O [T3] — higher, 365 °C

Point of comparison: `C=C(C)C(=O)Oc1cc(OC(=O)C(=C)C)c2cc1C1CCCC3c4cc(c(OC(=O)C(=C)C)cc4OC(=O)C(=C)C)C4CCCC5c6cc(c(OC(=O)C(=C)C)cc6OC(=O)C(=C)C)C(CCCC6c7cc(c(OC(=O)C(=C)C)cc7OC(=O)C(=C)C)C(CCCC7c8cc(c(OC(=O)C(=C)C)cc8OC(=O)C(=C)C)C(CCCC(c8cc(c(OC(=O)C(=C)C)cc8OC(=O)C(=C)C)C(CCCC2c2cc4c(OC(=O)C(=C)C)cc2OC(=O)C(=C)C)c2cc7c(OC(=O)C(=C)C)cc2OC(=O)C(=C)C)c2cc1c(OC(=O)C(=C)C)cc2OC(=O)C(=C)C)c1cc6c(OC(=O)C(=C)C)cc1OC(=O)C(=C)C)c1cc5c(OC(=O)C(=C)C)cc1OC(=O)C(=C)C)c1cc3c(OC(=O)C(=C)C)cc1OC(=O)C(=C)C` [T3-1], “First decomposition temperature: Decomposition initiation temperature” value 387 °C. Against it:
- C=COCCOc1cc(OCCOC=C)c2cc1C1CCCC3c4cc(c(OCCOC=C)cc4OCCOC=C)C4CCCC5c6cc(c(OCCOC=C)cc6OCCOC=C)C(CCCC6c7cc(c(OCCOC=C)cc7OCCOC=C)C(CCCC7c8cc(c(OCCOC=C)cc8OCCOC=C)C(CCCC(c8cc(c(OCCOC=C)cc8OCCOC=C)C(CCCC2c2cc4c(OCCOC=C)cc2OCCOC=C)c2cc7c(OCCOC=C)cc2OCCOC=C)c2cc1c(OCCOC=C)cc2OCCOC=C)c1cc6c(OCCOC=C)cc1OCCOC=C)c1cc5c(OCCOC=C)cc1OCCOC=C)c1cc3c(OCCOC=C)cc1OCCOC=C [T3-6] — lower, 336 °C
- OCCOc1cc(OCCO)c2cc1C1CCCC3c4cc(c(OCCO)cc4OCCO)C4CCCC5c6cc(c(OCCO)cc6OCCO)C(CCCC6c7cc(c(OCCO)cc7OCCO)C(CCCC7c8cc(c(OCCO)cc8OCCO)C(CCCC(c8cc(c(OCCO)cc8OCCO)C(CCCC2c2cc4c(OCCO)cc2OCCO)c2cc7c(OCCO)cc2OCCO)c2cc1c(OCCO)cc2OCCO)c1cc6c(OCCO)cc1OCCO)c1cc5c(OCCO)cc1OCCO)c1cc3c(OCCO)cc1OCCO [T3-7] — lower, 375 °C
- Oc1cc(O)c2cc1C1CCCC3c4cc(c(O)cc4O)C4CCCC5c6cc(c(O)cc6O)C(CCCC6c7cc(c(O)cc7O)C(CCCC7c8cc(c(O)cc8O)C(CCCC(c8cc(c(O)cc8O)C(CCCC2c2cc4c(O)cc2O)c2cc7c(O)cc2O)c2cc1c(O)cc2O)c1cc6c(O)cc1O)c1cc5c(O)cc1O)c1cc3c(O)cc1O [T3] — lower, 333 °C

Assay: Solubility test (2 ml solvent added to 2 mg derivative)
Assay type: physicochemical
Settings: not given
Procedure: A solubility test was carried out by adding 2 ml of each of the solvents shown in Table 4 to 2 mg of each of the derivatives listed in Table 4.

With `CC1=C2OCOc3c4cc5c(c3C)OCOc3c6cc7c(c3C)OCOc3c8cc9c(c3C)OCOc3c%10cc%11c(c3C)OCOc3c%12cc%13c(c3C)OCOc3c(cc%14c(c3C)OCOc3c%15cc%16c(c3C)OCOc3c(cc%17c(c3C)OCOc3c%18cc%19c(c3C)OCOc3c(cc%20c(c3C)OCOc3c(cc%21c(c3C)OCOC1=C(C=C2C4CCCC9%10)C%21CCCC%18%17)C%20CCCC56)C%19CCCC%15%14)C%16CCCC%11%12)C%13CCCC78` (stereo not drawn) [formula (33)] the “Solubility in acetone and methylene chloride” value was “dissolved in acetone and methylene chloride”.
